According to patent US6908734B2, “Sulfated CCR5 peptides for HIV-1 infection” (priority 2000, dated 2005):
Where no end group is shown, it is not given here. [ ]: non-standard residue; d: D form. The star is where a group is joined. Biotin = O=C1N[C@H]2[C@H](CS[C@H]2CCCCC(=O)*)N1; sY = N[C@@H](Cc1ccc(OS(=O)(=O)O)cc1)C(=O)O; pY = N[C@@H](Cc1ccc(OP(=O)(O)O)cc1)C(=O)O

Columns and labels:
PA11 = assay: ELISA: direct binding of anti-CCR5 MAb PA11 to peptides; design: species or system murine
Method: (§1) In a competition ELISA, peptides were captured onto the plates as described above. Inhibitor or assay buffer was added for 1 h prior to addition of gp120JR-FL/CD4-IgG2 complex (1 nM) for an additional h at room temperature. The assay was then completed as described above. Direct binding of anti-CCR5 murine MAbs to the peptides was examined as described above except that MAb was substituted for gp120/CD4-IgG2 complex and a goat anti-mouse HRP-coupled antibody was used for detection.

PA8 = assay: ELISA: direct binding of anti-CCR5 MAb PA8 to peptides; design: species or system murine
Method: as §1

PA10 [1] = assay: ELISA: direct binding of anti-CCR5 MAb PA10 to peptides; design: species or system murine
Method: as §1

gp120JR-FL/CD4-IgG2 = assay: CCR5 Nt peptide ELISA with gp120JR-FL/CD4-IgG2; assay type: binding, HIV-1; conditions: peptide 1 μg/ml on streptavidin plate
Method: (§3) Streptavidin-coated ELISA plates (Pierce, Rockford, Ill.) were blocked with D-PBS/5% BSA for 2 hours at room temperature then washed three times with assay buffer (D-PBS/0.5% Tween 20/1% Fetal Bovine Serum/2% BSA). Plates were then contacted with sulfo- or phospho-peptides (1 μg/ml) for 1 hour at room temperature and washed three times with assay buffer. […] The plates were developed using the TMB substrate as described above.

gp120DH123/CD4-IgG2 = assay: CCR5 Nt peptide ELISA with gp120DH123/CD4-IgG2; assay type: binding, HIV-1; conditions: peptide 1 μg/ml on streptavidin plate
Method: as §3

PA14 = assay: ELISA: direct binding of anti-CCR5 MAb PA14 to peptides; design: species or system murine
Method: as §1

PA12 = assay: ELISA: direct binding of anti-CCR5 MAb PA12 to peptides; design: species or system murine
Method: as §1

gp120LAI/CD4-IgG2 = gp120LAI/CD4-IgG2 (Human immunodeficiency virus type 1 group M subtype B, UniProt P03377); conditions: peptide 1 μg/ml on streptavidin plate
Method: Streptavidin-coated ELISA plates (Pierce, Rockford, Ill.) were blocked with D-PBS/5% BSA for 2 hours at room temperature then washed three times with assay buffer (D-PBS/0.5% Tween 20/1% Fetal Bovine Serum/2% BSA). Plates were then contacted with sulfo- or phospho-peptides (1 μg/ml) for 1 hour at room temperature and washed three times with assay buffer. Mixtures of CD4-IgG2 (50 nM) and purified gp120 or gp120-containing supernatants in a 1:4 molar ratio were added to the plates for 1 hour at room temperature. Plates were washed three times and (HRP)-conjugated goat anti-human IgG was used to detect the presence of bound CD4-IgG2. The plates were developed using the TMB substrate as described above. Gp120/CD4-IgG2 binding to the peptides was normalized for CD4-IgG2binding to the mutant gp120 proteins.

[2] = system: gp120JR-FL alanine mutants/CD4-IgG2; assay: ELISA: binding of gp120JR-FL alanine mutant/CD4-IgG2 complexes to sulfopeptide 2-18; design: species or system HIV-1
Method: Mutant gp120 proteins were generated using the QuickChange Kit from Stratagene (San-Diego, Calif.). Gp120JR-FL, cloned into the pPPI4 expression vector [4], served as the template for site directed mutagenesis. Nucleotide sequencing was performed to ascertain the presence of the appropriate mutation in the gp120 coding sequence. 293T cells were calcium phosphate transfected with the different mutant gp120 expression constructs. Supernatants containing soluble gp120 proteins were harvested and cleared of debris by centrifugation 24 hours post-transfection. Quantification of gp120 was performed by ELISA as previously described). Briefly, 293T supernatants were boiled for 5 minutes and denatured gp120 was captured on an ELISA plate coated with D7324 (International Enzymes Inc. Fallbrook, Calif.), a MAb that recognizes a 15 residue linear epitope in the carboxy-terminal end of gp120. Captured gp120 was detected by a mixture of anti-gp120 MAbs B12 and B13 [40], followed by incubation with a horseradish peroxidase-conjugated (HRP) anti-mouse IgG antibody (Amersham Pharmacia, Piscataway, N.J.). Optical density (O.D.) was measured at 450 nm using the ImmunoPure TMB Substrate kit (Pierce, Rockford, Ill.).
CD4-IgG2 binding to non-denatured mutant gp120 proteins also was measured. Plates coated with D7324 were used to capture native gp120 from supernatants of transiently transfected 293T cells. CD4-IgG2 (50 nM) was added to the plates and its binding was detected using an HRP-conjugated goat anti-human IgG and TMB substrate as described above.

CD4-IgG2 = CD4-IgG2 (Homo sapiens, UniProt P01730+P01834+P01859); assay: CCR5 Nt peptide ELISA with CD4-IgG2 alone; assay type: binding
Method: as §3

[3] = system: V3 loop-deleted gp120JR-FL/CD4-IgG2; assay: CCR5 Nt peptide ELISA with V3 loop-deleted gp120JR-FL/CD4-IgG2; assay type: binding, HIV-1
Method: as §3

[4] = target: T1, gp120JR-FL/CD4-IgG2 binding to the sulfopeptide 2-18 (Homo sapiens, UniProt P51681); assay: Competition ELISA: gp120JR-FL/CD4-IgG2 binding to sulfopeptide 2-18; design: species or system HIV-1; conditions: complex 1 nM, up to supraphysiologic concentrations
T1 construct: a peptide spanning CCR5 residues 2-18 and containing sulfotyrosines in positions 10 and 14; host or cells: peptide synthetic
Method: as §1

[5] = target: T2, gp120/CD4 binding to cell surface CCR5 (Homo sapiens, UniProt P51681); conditions: cited from earlier work
T2 construct: Supernatants containing soluble gp120 proteins were harvested; made in house; host or cells: gp120: 293T supernatants; CCR5: L1.2-CCR5+ cells
T2 sequence (P51681 whole entry): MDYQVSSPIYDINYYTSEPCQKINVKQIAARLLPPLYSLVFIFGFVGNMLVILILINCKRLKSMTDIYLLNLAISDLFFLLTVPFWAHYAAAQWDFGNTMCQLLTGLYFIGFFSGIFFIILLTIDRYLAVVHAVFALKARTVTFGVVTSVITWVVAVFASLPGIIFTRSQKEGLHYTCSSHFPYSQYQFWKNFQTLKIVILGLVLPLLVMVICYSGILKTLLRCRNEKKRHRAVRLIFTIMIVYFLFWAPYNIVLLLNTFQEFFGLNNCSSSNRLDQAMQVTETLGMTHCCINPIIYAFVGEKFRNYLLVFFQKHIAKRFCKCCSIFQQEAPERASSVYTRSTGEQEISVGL

[6] = system: gp120JR-FL/CD4-IgG2 complex binding to CCR5; assay: Inhibition of gp120JR-FL/CD4-IgG2 complex binding to L1.2-CCR5+ cells (flow cytometry); assay type: cell-based, HIV-1; conditions: gp120 100 nM, biotinylated CD4-IgG2 50 nM, different concentrations of peptide
Method: A gp120/CD4 complex formed from monomeric gp120 (100 nM) and biotinylated CD4-IgG2 (50 nM) was added to 1×10^6 L1.2-CCR5^+ cells in the presence of different concentrations of peptide (Olson et al. J. Virol. 73:4145, 1999). CD4-IgG2 is tetrameric and therefore binds four molecules of gp120, which increases binding of the complex to CCR5 (Allaway et al. AIDS Res. Hum. Retroviruses 11:533, 1995). The mean fluorescence intensity (m.f.i.) was measured by flow cytometry after addition of phycoerythrin (PE)-labeled streptavidin (Becton Dickinson, San Jose, Calif.). Inhibition of gp120/CCR5 binding was calculated: […].

PA10 binding to CCR5 = assay: Inhibition of anti-CCR5 MAb PA10 binding to L1.2-CCR5 cells; assay type: cell-based, mouse; conditions: MAb 50 nM, peptide 100 μM
Method: L1.2-CCR5 cells (1×10^6) were incubated with anti-CCR5 MAb (50 nM)±peptide (100 μM). MAb binding was detected using a PE-labeled goat anti-mouse antibody (Caltag Laboratories, Burlingam, Calif.). The m.f.i value was measured by flow cytometry as described (Olson et al. J. Virol. 73:4145, 1999). MAb binding was calculated as above.

gp120JR-FL/sCD4 = assay: BIAcore: gp120JR-FL/sCD4 binding to immobilized biotinylated CCR5 Nt peptide; design: species or system HIV-1; conditions: protein 100 nM; 400 RU biotinylated peptide on streptavidin chip
Method: (§2) Streptavidin-coated sensor chips (BIAcore AB, Sweden) were conditioned with five injections of regeneration solution (1M NaCl, 50 mM NaOH) and equilibrated with HBS-EP buffer (10 mM HEPES, 150 mM NaCl, […], 0.005% polysorbate 20) as recommended by the manufacturer. Biotinylated peptides were then immobilized on the chip by injection of peptide (100 nM) in HBS-EP buffer, followed by an injection of regeneration solution and equilibration with HBS-EP buffer. 400 resonance units (RU) of peptide were bound to the sensor chip surface. Solutions of the following proteins (100 nM) were passed over the sensor chip surface: gp120, sCD4, gp120/sCD4, PA8, PA10 and 2D7. […] Following injection of each solution the chip was regenerated and equilibrated as described above.
Biotinylated peptide was attached to the streptavidin-coated gold surface of a sensor chip and solutions containing different gp120/sCD4 complexes were flowed over the immobilized peptide. Adsorption of the complex due to complex/peptide binding was detected by an increase in surface plasmon resonance signal (RU), which reports changes in the effective refraction index very near the gold surface of the sensor chip (Schuck Ann. Rev. Biophys Biomol Struct 26:541, 1997). […]
Binding of gp120/CD4-IgG2 complex and MAbs to CCR5 Nt-based peptides was measured as previously described. […]

PA10 [7] = assay: BIAcore: PA10 on immobilized peptide; assay type: binding, mouse; conditions: MAb 100 nM
Method: as §2

Molecule	Binding of PA11 to peptide (ELISA) (PA11)	Binding of PA8 to peptide (ELISA) (PA8)	Binding of PA10 to peptide (ELISA) (PA10 [1])	Binding of gp120JR-FL/CD4-IgG2 to peptide (ELISA) (gp120JR-FL/CD4-IgG2)	Binding of PA14 to peptide (ELISA) (PA14)	Binding of PA12 to peptide (ELISA) (PA12)	Binding of gp120LAI/CD4-IgG2 to peptide (ELISA) (gp120LAI/CD4-IgG2)	Association of gp120JR-FL/sCD4 complex with immobilized peptide (RU) (gp120JR-FL/sCD4)	other results
2-18(P): analogous CCR5 Nt phosphopeptide, residues 2-18, phosphotyrosines in positions 10 and 14, GAG spacer, biotinylated lysine (DYQVSSPI[pY]DIN[pY]YTSEGAGK(Biotin))	weakly	avidly binds	moderately	No binding was observed	does not recognize	undetectable	No binding was observed	–	Binding of gp120DH123/CD4-IgG2 to peptide (ELISA) (gp120DH123/CD4-IgG2): No binding was observed
2-18: peptide spanning CCR5 residues 2-18, sulfotyrosines in positions 10 and 14, carboxy terminal GAG spacer and biotinylated lysine (DYQVSSPI[sY]DIN[sY]YTSEGAGK(Biotin))	binds moderately	avidly binds	binds avidly	strongest binding	does not recognize	weak	did not measurably bind	–	Effect of V3 loop crown residues on gp120 binding to the sulfopeptide ([2]; alanine mutants in the crown of the V3 loop, including the GPGR motif): no effect; Decrease of complex binding to the sulfopeptide by C4 alanine substitutions ([2]; alanine substitutions of R419, I420, K421, Q422 and R444): 5-10 fold; Effect of alanine substitutions of R440 and R469 on complex binding ([2]; gp120 R440A, R469A): increased complex binding; Decrease of complex binding to the peptide by V3 loop stem alanine mutants ([2]; gp120 alanine mutants R298, N301, T303, I322, D324, I325, R326, normalized for CD4-IgG2 binding): > 10 fold; Effect of alanine substitutions in other regions of gp120 on complex-peptide interactions ([2]; other regions of gp120): None of the alanine substitutions that we introduced in the other regions of gp120 significantly affected; Binding of CD4-IgG2 alone to peptide (ELISA) (CD4-IgG2): did not measurably bind; Binding of V3 loop-deleted gp120JR-FL/CD4-IgG2 to peptide (ELISA) [3]: did not measurably bind
Cc1ccc(-c2ccc3c(c2)C=C(C(=O)Nc2ccc(C[N+](C)(C)C4CCOCC4)cc2)CCC3)cc1.[Cl-] [TAK-779]	–	–	–	–	–	–	–	–	Inhibition of gp120JR-FL/CD4-IgG2 binding to the sulfopeptide 2-18 [4]: not inhibited; Block of gp120/CD4 binding to CCR5 [5]: block
S-3/10/14: tyrosine-sulfated peptide spanning amino acids 2-18 of the CCR5 Nt, sulfo-tyrosines in positions 3, 10 and 14 (D[sY]QVSSPI[sY]DIN[sY]YTSE; UniProt P51681 2-18, looked up, fragment)	–	–	–	–	–	–	–	–	Inhibition of gp120JR-FL/CD4-IgG2 binding to CCR5+ cells [6]: inhibited complex binding to the cells in a dose-dependent manner; Inhibition of PA10 binding to CCR5+ cells (PA10 binding to CCR5): inhibited
bP-10/14: biotinylated version of P-10/14 with C-terminal GAG spacer preceding a biotinylated lysine; apparently as 2-18(P) (DYQVSSPI[pY]DIN[pY]YTSEGAGK(Biotin))	–	–	–	–	–	–	–	complete lack of association	–
bS-10/14: biotinylated version of S-10/14 with C-terminal GAG spacer preceding a biotinylated lysine; apparently as 2-18 (DYQVSSPI[sY]DIN[sY]YTSEGAGK(Biotin))	–	–	–	–	–	–	–	significant increase in RU	Association of PA10 with immobilized peptide (BIAcore) (PA10 [7]): associate
